Target: T1, human oxytocin receptor (Homo sapiens, UniProt P30559)
T1 construct: host or cells: CHO cells (pcDNA3.1 vector)
T1 sequence (P30559 1-389): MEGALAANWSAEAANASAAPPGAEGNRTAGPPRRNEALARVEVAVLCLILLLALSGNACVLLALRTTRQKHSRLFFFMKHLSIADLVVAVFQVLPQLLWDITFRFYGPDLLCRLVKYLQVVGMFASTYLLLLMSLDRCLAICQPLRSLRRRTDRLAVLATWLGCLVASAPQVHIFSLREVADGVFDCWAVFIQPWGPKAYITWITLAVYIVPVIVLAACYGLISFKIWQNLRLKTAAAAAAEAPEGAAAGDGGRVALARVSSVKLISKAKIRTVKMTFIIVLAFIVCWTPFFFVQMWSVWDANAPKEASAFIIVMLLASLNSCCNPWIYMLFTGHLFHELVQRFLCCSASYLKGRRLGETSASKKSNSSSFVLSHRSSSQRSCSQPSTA
Experiment: Oxytocin binding in Chinese Hamster Ovary cell membranes expressing human oxytocin receptors
Conditions: CHO cell membranes, [3H]oxytocin, values in parentheses, read-out: OT (IC50)

SMILES | IC50
COc1ccccc1-c1ccc(C(=O)N2Cc3ccc(C(=O)N4CCN(CCN(C)C)CC4)n3Cc3ccccc32)cc1C [Example 195, {4-[2-(Dimethylamino)ethyl]-1-piperazinyl}{10-[(2′-methoxy-2-methyl[1,1′-biphenyl]-4-yl)carbonyl]-10,11-dihydro-5H-pyrrolo[2,1-c][1,4]benzodiazepin-3-yl}methanone] | 3.84 nM
Cc1cc(C(=O)N2Cc3ccc(C(=O)N4CCN(CCN(C)C)CC4)n3Cc3ccccc32)ccc1-c1ccccc1C(F)(F)F [Example 196, {4-[2-(Dimethylamino)ethyl]-1-piperazinyl}(10-{[2-methyl-2′-(trifluoromethyl)[1,1′-biphenyl]-4-yl]carbonyl}-10,11-dihydro-5H-pyrrolo[2,1-c][1,4]benzodiazepin-3-yl)methanone] | 11.6 nM
COc1cc(-c2ccccc2C)c(Cl)cc1C(=O)N1Cc2ccc(C(=O)N3CCN(CCN(C)C)CC3)n2Cc2ccccc21 [Example 197, {10-[(6-Chloro-3-methoxy-2′-methyl[1,1′-biphenyl]-4-yl)carbonyl]-10,11-dihydro-5H-pyrrolo[2,1-c][1,4]benzodiazepin-3-yl}{4-[2-(dimethylamino)ethyl]-1-piperazinyl}methanone] | 5.39 nM
COc1ccccc1-c1ccc(C(=O)N2Cc3ccc(C(=O)N4CCN(CCN5CCOCC5)CC4)n3Cc3ccccc32)cc1C [Example 206, {10-[(2′-Methoxy-2-methyl[1,1′-biphenyl]-4-yl)carbonyl]-10,11-dihydro-5H-pyrrolo[2,1-c][1,4]benzodiazepin-3-yl}{4-[2-(4-morpholinyl)ethyl]-1-piperazinyl}methanone] | 3.66 nM
COc1ccccc1-c1ccc(C(=O)N2Cc3ccc(C(=O)N4CCN(CCN5CCOCC5)CC4)n3Cc3ccccc32)cc1 [Example 207, {10-[(2′-Methoxy[1,1′-biphenyl]-4-yl)carbonyl]-10,11-dihydro-5H-pyrrolo[2,1-c][1,4]benzodiazepin-3-yl}{4-[2-(4-morpholinyl)ethyl]-1-piperazinyl}methanone] | 9.5 nM
C=CCN1CCN(C(=O)c2ccc3n2Cc2ccccc2N(C(=O)c2cc(Cl)c(-c4ccccc4C)cc2OC)C3)CC1 [Example 219, (4-Allyl-1-piperazinyl){10-[(6-chloro-3-methoxy-2′-methyl[1,1′-biphenyl]-4-yl)carbonyl]-10,11-dihydro-5H-pyrrolo[2,1-c][1,4]benzodiazepin-3-yl}methanone] | 12.1 nM
C=CCN1CCN(C(=O)c2ccc3n2Cc2ccccc2N(C(=O)c2ccc(-c4ccccc4C)c(C)c2)C3)CC1 [Example 220, (4-Allyl-1-piperazinyl){10-[(2,2′-dimethyl[1,1′-biphenyl]-4-yl)carbonyl]-10,11-dihydro-5H -pyrrolo[2,1-c][1,4]benzodiazepin-3-yl}methanone] | 7.2 nM
C=CCN1CCN(C(=O)c2ccc3n2Cc2ccccc2N(C(=O)c2ccc(-c4ccccc4OC)cc2)C3)CC1 [Example 221, (4-Allyl-1-piperazinyl){10-[(2′-methoxy[1,1′-biphenyl]4-yl)carbonyl]-10,11-dihydro-5H -pyrrolo[2,1-c][1,4]benzodiazepin-3-yl}methanone] | 11.1 nM
COc1ccccc1-c1ccc(C(=O)N2Cc3ccc(C(=O)N4CCN(CCCN(C)C)CC4)n3Cc3ccccc32)cc1C [Example 245, {4-[3-(Dimethylamino)propyl]-1-piperazinyl}{10-[(2′-methoxy-2-methyl[1,1′-biphenyl]-4-yl)carbonyl]-10,11-dihydro-5H-pyrrolo[2,1-c][1,4]benzodiazepin-3-yl}methanone] | 16.9 nM
COc1ccccc1-c1ccc(C(=O)N2Cc3ccc(C(=O)N4CCN(CCCN(C)C)CC4)n3Cc3ccccc32)cc1 [Example 246, {4-[3-(Dimethylamino)propyl]-1-piperazinyl}{10-[(2′-methoxy[1,1′-biphenyl]-4-yl)carbonyl]-10,11-dihydro-5H-pyrrolo[2,1-c][1,4]benzodiazepin-3-yl}methanone] | 17.8 nM
Cc1cc(C(=O)N2Cc3ccc(C(=O)N4CCC[C@H]4CN4CCCC4)n3Cc3ccccc32)ccc1-c1ccccc1C(F)(F)F [Example 258, (10-{[2-Methyl-2′-(trifluoromethyl)[1,1′-biphenyl]-4-yl]carbonyl}-10,11-dihydro-5H-pyrrolo[2,1-c][1,4]benzodiazepin-3-yl)[(2S)-2-(1-pyrrolidinylmethyl)pyrrolidinyl]methanone] | 2.85 nM
COc1cccc(-c2ccc(C(=O)N3Cc4ccc(C(=O)N5CCC[C@H]5CN5CCCC5)n4Cc4ccccc43)cc2C)c1 [Example 263, {10-[(3′-Methoxy-2-methyl[1,1′-biphenyl]-4-yl)carbonyl]-10,11-dihydro-5H-pyrrolo[2,1-c][1,4]benzodiazepin-3-yl}[(2S)-2-(1-pyrrolidinylmethyl)pyrrolidinyl]methanone] | 2.31 nM
Cc1cc(C(=O)N2Cc3ccc(C(=O)N4CC[C@@H](N(C)C)C4)n3Cc3ccccc32)ccc1-c1ccccc1C(F)(F)F [Example 271, [(3R)-3-(Dimethylamino)pyrrolidinyl](10-{[2-methyl-2′-(trifluoromethyl)[1,1′-biphenyl]-4-yl]carbonyl}-10,11-dihydro-5H-pyrrolo[2,1-c][1,4]benzodiazepin-3-yl)methanone] | 6.29 nM
COc1ccccc1-c1ccc(C(=O)N2Cc3ccc(C(=O)N4CC[C@@H](N(C)C)C4)n3Cc3ccccc32)cc1C [Example 272, [(3R)-3-(Dimethylamino)pyrrolidinyl]{10-[(2′-methoxy-2-methyl[1,1′-biphenyl]-4-yl)carbonyl]-10,11-dihydro-5H-pyrrolo[2,1-c][1,4]benzodiazepin-3-yl}methanone] | 2.61 nM
COc1cc(-c2ccccc2C)c(Cl)cc1C(=O)N1Cc2ccc(C(=O)N3CC[C@@H](N(C)C)C3)n2Cc2ccccc21 [Example 273, {10-[(6-Chloro-3-methoxy-2′-methyl[1,1′-biphenyl]-4-yl)carbonyl]-10,11-dihydro-5H-pyrrolo[2,1-c][1,4]benzodiazepin-3-yl}[(3R)-3-(dimethylamino)pyrrolidinyl]methanone] | 4.26 nM
COc1cccc(-c2ccc(C(=O)N3Cc4ccc(C(=O)N5CC[C@@H](N(C)C)C5)n4Cc4ccccc43)cc2C)c1 [Example 278, [(3R)-3-(Dimethylamino)pyrrolidinyl]{10-[(3′-methoxy-2-methyl[1,1′-biphenyl]-4-yl)carbonyl]-10,11-dihydro-5H-pyrrolo[2,1-c][1,4]benzodiazepin-3-yl}methanone] | 7.87 nM
